The target in the experiment is ERRα ligand binding domain (ERRα-LBD) (Homo sapiens (Human), UniProt P11474). As to the kind of experiment: ERRα AlphaScreen Assay. The experiment is classed as biochemical. The note with it: disruption of binding of ERRα-LBD protein to biotin-PGC1α-3 co-activator peptide; read-out: mean pIC50 (converted). The text has this:
This assay was based on the knowledge that nuclear receptors interact with cofactors in a ligand dependent matter. The sites of interaction have been mapped to LXXLL motifs that are present in the co-activator sequences. Short peptide sequences that contain the LXXLL motif mimic the behavior of full length co-activators.
The ERRα AlphaScreen Assay described here relies on the interaction of the co-activator peptide with purified bacterial-expressed ERRα ligand binding domain (ERRα-LBD); upon ligand binding the ERRα protein can undergo a conformational change resulting in a loss of co-activator binding.
Compounds of the present invention were tested for their ability to disrupt binding of ERRα-LBD protein to co-activator peptide using AlphaScreen® Technology (Perkin Elmer). ERRα-LBD protein was expressed in E. coli as a 6×His Small Ubiquitin-like Modifier (SUMO) fusion. Bacterial expressed 6His-SUMO-ERRα-LBD protein was purified using affinity chromatography. All experiments were performed at room temperature in 384-well white non-binding plates (Greiner) using 50 mM Tris-HCl pH 7.5, 100 mM NaCl, 0,1% Pluronic F-127, 0.05% BSA and 5 mM TCEP as the buffer. Final DMSO concentration was 1% in the assay. Compounds were assayed in triplicate and: incubated with 0.81 nM ERRα-LBD protein and 10 μg/mL streptavidin donor beads and 10 μg/mL Ni-chelate acceptor beads for 1 hour at room temperature; followed by a 2-hour incubation with 15 nM biotin-PGC1α-3 peptide (QRRPCSELLKYLTTNDDPP) corresponding to amino acids 202 to 220.
The AlphaScreen signal was measured using an Envision Xcite plate reader (Perkin Elmer). Data was normalized, and curve fitting analysis was performed in GraphPad Prism 7 using a four-parameter dose-response fit.
As multiple IC50 values were annotated for the same compound-protein pair, a mean pIC50 for each compound was determined.
(Bead proximity is the source of the signal in Alpha formats.)
ERRα ligand binding domain (ERRα-LBD), sequence (P11474 193-421): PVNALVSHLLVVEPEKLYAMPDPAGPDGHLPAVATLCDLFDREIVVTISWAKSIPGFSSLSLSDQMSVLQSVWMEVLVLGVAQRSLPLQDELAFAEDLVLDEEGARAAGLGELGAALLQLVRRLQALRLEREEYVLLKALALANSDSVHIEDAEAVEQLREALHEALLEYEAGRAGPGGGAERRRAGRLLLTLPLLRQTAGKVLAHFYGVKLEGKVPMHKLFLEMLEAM
For the compound `COc1cc(C2CC(=O)Nc3n[nH]cc32)ccc1COc1ccc(Cl)cc1C(F)(F)F` (single isomer, unassigned; (+)) [Example 193, (+)-4-(4-{[4-chloro-2-(trifluoromethyl)phenoxy]methyl}-3-methoxyphenyl)-2H,4H,5H,6H,7H-pyrazolo[3,4-b]pyridin-6-one], the IC50 was 0.01 to 0.1 µM.

For `COc1cc(C2CC(=O)Nc3n[nH]cc32)ccc1COc1ccc(C(F)F)cc1C(F)(F)F` (single isomer, unassigned; (+)) [Example 195, (+)-4-(4-{[4-(difluoromethyl)-2-(trifluoromethyl)phenoxy]methyl}-3-methoxyphenyl)-2H,4H,5H,6H,7H-pyrazolo[3,4-b]pyridin-6-one], the IC50 was 0.01 to 0.1 µM.

In the case of `COc1cc(C2CC(=O)Nc3n[nH]cc32)ccc1OCc1ccc(C(C)=O)cc1C(F)(F)F` (single isomer, unassigned; (+)) [Example 199, (+)-4-(4-{[4-acetyl-2-(trifluoromethyl)phenyl]methoxy}-3-methoxyphenyl)-2H,4H,5H,6H,7H-pyrazolo[3,4-b]pyridin-6-one], the IC50 is 0.1 to 1 µM.

With `COc1ccc(COc2ccc(C3CC(=O)Nc4[nH]nnc43)cc2OC)c(C(F)(F)F)c1` (single isomer, unassigned; (+)) [Example 201, (+)-7-(3-methoxy-4-{[4-methoxy-2-(trifluoromethyl)phenyl]methoxy}phenyl)-3H,4H,5H,6H,7H-[1,2,3]triazolo[4,5-b]pyridin-5-one], the IC50 is 0.01 to 0.1 µM.

As for `COc1cc(C2CC(=O)Nc3n[nH]cc32)ccc1OCc1ccc(N)cc1C(F)(F)F` (single isomer, unassigned; (+)) [Example 203, (+)-4-(4-{[4-amino-2-(trifluoromethyl)phenyl]methoxy}-3-methoxyphenyl)-2H,4H,5H,6H,7H-pyrazolo[3,4-b]pyridin-6-one], the IC50 is 0.01 to 0.1 µM.

With `COc1cc(C2CC(=O)Nc3n[nH]cc32)ccc1OCc1ccc(O)cc1C(F)(F)F` (single isomer, unassigned; (+)) [Example 209, (+)-4-(4-{[4-hydroxy-2-(trifluoromethyl)phenyl]methoxy}-3-methoxyphenyl)-2H,4H,5H,6H,7H-pyrazolo[3,4-b]pyridin-6-one], the IC50 is 0.01 to 0.1 µM.

Turning to `COc1cc(C2CC(=O)Nc3n[nH]cc32)ccc1COc1ccc(C)cc1C(F)(F)F` (single isomer, unassigned; (+)) [Example 213, (+)-4-(3-methoxy-4-{[4-methyl-2-(trifluoromethyl)phenoxy]methyl}phenyl)-2H,4H,5H,6H,7H-pyrazolo[3,4-b]pyridin-6-one], the IC50 was 0.01 to 0.1 µM.

In the case of `COc1cc(C2CC(=O)Nc3n[nH]cc32)ccc1COc1ccc(C(F)(F)F)cc1C(F)F` (single isomer, unassigned; (+)) [Example 215, (+)-4-(4-{[2-(difluoromethyl)-4-(trifluoromethyl)phenoxy]methyl}-3-methoxyphenyl)-2H,4H,5H,6H,7H-pyrazolo[3,4-b]pyridin-6-one], the IC50 was 0.1 to 1 µM.

Regarding `COc1cc(C2CC(=O)Nc3n[nH]cc32)ccc1COc1ccc(C(F)F)cc1C(F)F` (single isomer, unassigned; (+)) [Example 217, (+)-4-(4-{[2,4-bis(difluoromethyl)phenoxy]methyl}-3-methoxyphenyl)-2H,4H,5H,6H,7H-pyrazolo[3,4-b]pyridin-6-one], the IC50 was 0.1 to 1 µM.

Turning to `COc1cc(C2CC(=O)Nc3n[nH]cc32)ccc1COc1ccc(C)cc1C` (single isomer, unassigned; (+)) [Example 219, (+)-4-{4-[(2,4-dimethylphenoxy)methyl]-3-methoxyphenyl}-2H,4H,5H,6H,7H-pyrazolo[3,4-b]pyridin-6-one], the IC50 is 0.1 to 1 µM.

As to `COc1cc(C2CC(=O)Nc3n[nH]nc32)ccc1OCc1ccc(N)cc1C(F)(F)F` (single isomer, unassigned; (-)) [Example 206, (−)-7-(4-{[4-amino-2-(trifluoromethyl)phenyl]methoxy}-3-methoxyphenyl)-2H,4H,5H,6H,7H-[1,2,3]triazolo[4,5-b]pyridin-5-one], the IC50 is 0.01 to 0.1 µM.

The record behind these values is US12527774B2, “Estrogen-related receptor alpha modulators” (LEAD PHARMA HOLDING B.V., priority 2019, dated 2026).
